Patent publication US12491185B2, “Inhibitors of mPTP” (NRG Therapeutics Ltd, priority 2023, dated 2025)

test system: mPTP; assay: mPTP activity (Ca2+ retention) assay in isolated rat liver mitochondria; format: biochemical; settings: examples tested by different contract research organisations, believed comparable
From the text: Pharmacological inhibition or modulation of the mPTP can be measured in well characterised ‘Ca^2+ retention’ assays performed in isolated mitochondria. In vitro, isolated mitochondria rapidly sequester exogenous Ca^2+ until the intramitochondrial Ca^2+ concentration reaches the threshold for mPTP activation. Once the pore is activated, mitochondrial integrity is compromised and the stored Ca^2+ is released. The distribution of Ca^2+ between extra- and intra-mitochondrial compartments can be measured in real time with the use of membrane-impermeant Ca^2+ sensitive fluorescent dyes. Depending on the configuration of the assay, inhibition or modulation of the mPTP either delays the opening of the pore or increases the concentration of Ca^2+ required to induce mPTP opening.
MPTP activity was measured in mitochondria freshly isolated from female Sprague Dawley (250 to 300 gram) rat livers using the following method. Cervical dislocation was performed on the rat. The liver was then perfused in-situ with −40 ml cold Dulbecco's Phosphate Buffered Saline (DPBS) prior to dissection and transferred into 30 ml Isolation Buffer (250 mM Sucrose, 10 mM KCl, 1 mM EGTA, 1 mM EDTA, 25 mM HEPES, adjusted to pH 7.5 with 1M NaOH). Each lobe of the liver was then removed from the buffer, minced using tweezers and a scalpel into −5 mm pieces then transferred into a 50 ml Potterton dounce homogenization tube on ice containing 30 ml ice-cold centrifugation buffer (300 mM Trehalose, 25 mM HEPES, 1 mM EGTA, 1 mM EDTA, 10 mM KCl, adjusted to pH 7.5 with 1M NaOH and supplemented with 0.1% bovine serum albumin (BSA) and complete protease inhibitor cocktail (one tablet of inhibitor per 50 mls of buffer). Homogenisation was carried out using a teflon pestle at 1800 rpm. The slurry was centrifuged at 800 g for 10 min at 4° C., then the supernatant centrifuged at 10,000 g for 10 min. The pellet was washed once with FLIPR assay buffer (75 mM Mannitol, 25 mM Sucrose, 5 mM Potassium Phosphate Monobasic, 20 mM Tris base, 100 mM KCl, 0.1% BSA adjusted to pH 7.4 with 5M HCl) centrifuged again, then resuspended in FLIPR assay buffer to a concentration of 8.8 mg/ml protein.
Tested compounds (10 mM stock in DMSO) were serially diluted in DMSO in half log steps to generate 10 test concentrations (final concentrations in assay 30 μM to 1 nM). An intermediate dilution of 5 μl DMSO samples into 247 μl FLIPR assay buffer was carried out prior to transfer of 5 μl into duplicate wells of a 384 well polypropylene assay plate. Control wells were 0.5% (v/v) DMSO and 5 μM cyclosporin A.
A stock mitochondria/Fluo5N assay solution was prepared in 5.6 ml FLIPR assay buffer (at RT) supplemented with succinate disodium salt (10 mM), rotenone (1 μM), Fluo5N pentapotassium salt (2 μM) and 1 ml mitochondria suspension, then transferred (15 μl) into the assay plate containing test compounds and incubated for 10 min at RT. Assay plates were processed for fluorescence detection on either a FLIPR Tetra (Molecular Devices) or CLARIOstar (BMG) plate reader. For kinetic fluorescence detection on the FLIPR, dye fluorescence was measured every 3 sec for a total of 10 min. After 12 sec, a 2.5 μl bolus of CaCl2 (75 μM) was added from a source plate containing 675 μM CaCl2 in FLIPR assay buffer. Alternatively, the 2.5 μl addition of CaCl2 was performed using a Viaflow 384, plates were incubated at RT for 10 min, and dye fluorescence measured after 10 min on the CLARIOstar plate reader. pIC50 values for tested compounds were calculated using the fluorescence value collected at the 10 min timepoint on either plate reader, with % inhibition calculated using the DMSO control and cyclosporin A values as 0 and 100% respectively.

SMILES | mPTP Rat liver pIC50
O=C(NCC1(Cc2ccc(F)cc2F)CCC1)c1nnn[nH]1 [Example 140] | <4.57
Cc1cccc(CC2(CNC(=O)c3nn(C)c(=O)[nH]3)CCC2)c1 [Example 89, 1-Methyl-N-((1-(3-methylbenzyl)cyclobutyl)methyl)-5-oxo-4,5-dihydro-1H-1,2,4-triazole-3-carboxamide] | 6.05
CCc1cccc(CC2(CNC(=O)c3nn(C)c(=O)[nH]3)CCC2)c1 [Example 162, N-((1-(3-ethylbenzyl)cyclobutyl)methyl)-1-methyl-5-oxo-4,5-dihydro-1H-1,2,4-triazole-3-carboxamide] | 5.26
Cn1nc(C(=O)NCC2(Cc3cccc(C(F)(F)F)c3)CCC2)[nH]c1=O [Example 110, 1-methyl-5-oxo-N-((1-(3-(trifluoromethyl)benzyl)cyclobutyl)methyl)-4,5-dihydro-1H-1,2,4-triazole-3-carboxamide] | <4.57
O=C1COCC(C(=O)NCC2(Cc3ccccc3)CCC2)N1 (stereo not shown) [Example 65, N-((1-benzylcyclobutyl)methyl)-5-oxomorpholine-3-carboxamide] | <4.52
O=C(NCC1(Cc2ccc(F)cc2F)CCC1)c1nnc(C(F)(F)F)[nH]1 [Example 105, N-((1-(2,4-difluorobenzyl)cyclobutyl)methyl)-5-(trifluoromethyl)-4H-1,2,4-triazole-3-carboxamide] | <4.57
COCc1nnc(C(=O)NCC2(Cc3ccc(F)cc3F)CCC2)[nH]1 [Example 206] | 5.24
O=C(NCC1(Cc2cc(F)cc(F)c2)CCC1)c1ccc(=O)[nH]n1 [Example 176] | 4.8
O=C(NC[C@H](Cc1c(F)cc(F)cc1F)C1CC1)c1nccc(=O)[nH]1 [Example 183, (R)—N-(2-cyclopropyl-3-(2,4,6-trifluorophenyl)propyl)-6-oxo-1,6-dihydropyrimidine-2-carboxamide] | 5.4
Cn1nc(C(=O)NC[C@H](Cc2ccc(F)c(F)c2)C2CC2)[nH]c1=S [Example 119] | 5.9
CCCC(CNC(=O)c1nn(C)c(=O)[nH]1)Cc1ccccc1 (stereo not shown) [Example 55, N-(2-benzylpentyl)-1-methyl-5-oxo-4,5-dihydro-1H-1,2,4-triazole-3-carboxamide] | 5.44
Cc1cc(F)ccc1CC1(CNC(=O)c2nccc(=O)[nH]2)CCC1 [Example 168, N-((1-(4-fluoro-2-methylbenzyl)cyclobutyl)methyl)-6-oxo-1,6-dihydropyrimidine-2-carboxamide] | 6.07
COc1cccc(CC2(CNC(=O)c3nn(C)c(=O)[nH]3)CCC2)c1 [Example 75, N-((1-(3-Methoxybenzyl)cyclobutyl)methyl)-1-methyl-5-oxo-4,5-dihydro-1H-1,2,4-triazole-3-carboxamide] | 5.77
CC(C)[C@@H](CNC(=O)c1nn(C)c(=O)[nH]1)Cc1ccccc1 (single isomer, unassigned) [Example 46A] | 4.71
CC(C)(CNC(=O)c1cc(C(F)(F)F)n[nH]1)Cc1ccccc1 [Example 69, N-(2,2-dimethyl-3-phenylpropyl)-3-(trifluoromethyl)-1H-pyrazole-5-carboxamide] | <4.52
Cn1nc(C(=O)NCC2(Cc3ccc(F)cc3F)CCCCC2)[nH]c1=O [Example 73, N-((1-(2,4-Difluorobenzyl)cyclohexyl)methyl)-1-methyl-5-oxo-4,5-dihydro-1H-1,2,4-triazole-3-carboxamide] | 5.84
O=C(NCC1(Cc2ccc(F)cc2F)CCC1)c1nnc[nH]1 [Example 180] | 5.14

SMILES | mPTP Rat liver pIC50
Cn1nc(C(=O)NCC(C)(Cc2ccc(F)cc2F)C2CC2)[nH]c1=O (stereo not shown) [Example 210, N-(2-cyclopropyl-3-(2,4-difluorophenyl)-2-methylpropyl)-1-methyl-5-oxo-4,5-dihydro-1H-1,2,4-triazole-3-carboxamide] | 6.82
CSc1ccc(CC2(CNC(=O)c3nn(C)c(=O)[nH]3)CCC2)cc1 [Example 106, 1-methyl-N-((1-(4-(methylthio)benzyl)cyclobutyl)methyl)-5-oxo-4,5-dihydro-1H-1,2,4-triazole-3-carboxamide] | <4.57
O=C(NCC1(Cc2ccc(F)cc2F)CCC1)c1nncc(=O)[nH]1 [Example 198, N-((1-(2,4-difluorobenzyl)cyclobutyl)methyl)-5-oxo-4,5-dihydro-1,2,4-triazine-3-carboxamide] | 5.95
O=C(NCC1(Cc2ccc(F)cc2F)CCC1)c1ccn[nH]c1=O [Example 134, N-((1-(2,4-difluorobenzyl)cyclobutyl)methyl)-3-oxo-2,3-dihydropyridazine-4-carboxamide] | <4.57
CC[C@H](CNC(=O)c1nccc(=O)[nH]1)Cc1ccc(F)cc1F [Example 163] | 5.38
CCC(F)(CNC(=O)c1nn(C)c(=O)[nH]1)Cc1ccc(F)cc1F (stereo not shown) [Example 129, N-(2-(2,4-difluorobenzyl)-2-fluorobutyl)-1-methyl-5-oxo-4,5-dihydro-1H-1,2,4-triazole-3-carboxamide] | 6.45
O=C(NC[C@H](Cc1cc(F)ccc1F)C1CC1)c1ccc(=O)[nH]n1 [Example 155] | 5.33
O=C(NCC1(Cc2ccc(F)c(F)c2)CCC1)c1noc(=O)[nH]1 [Example 202, N-((1-(3,4-difluorobenzyl)cyclobutyl)methyl)-5-oxo-4,5-dihydro-1,2,4-oxadiazole-3-carboxamide] | 5.61
Cn1nc(C(=O)NCC2(Cc3ccc(F)cc3OC(F)(F)F)CCC2)[nH]c1=O [Example 102, N-((1-(4-fluoro-2-(trifluoromethoxy)benzyl)cyclobutyl)methyl)-1-methyl-5-oxo-4,5-dihydro-1H-1,2,4-triazole-3-carboxamide] | <4.57
Cn1nc(C(=O)NCC2(Cc3ccc(F)cc3C(F)(F)F)CCC2)[nH]c1=O [Example 87, N-((1-(4-Fluoro-2-(trifluoromethyl)benzyl)cyclobutyl)methyl)-1-methyl-5-oxo-4,5-dihydro-1H-1,2,4-triazole-3-carboxamide] | 5.57
CCC(CNC(=O)c1nn(C)c(=O)[nH]1)Cc1ccc2cnccc2c1 (stereo not shown) [Example 144] | <4.57
Cn1nc(C(=O)NC[C@H](Cc2ccccc2)C2CC2)[nH]c1=O [Example 124] | 6.76
Cn1c(=O)[nH]cc(C(=O)NCC(C)(C)Cc2ccccc2)c1=O [Example 68, N-(2,2-dimethyl-3-phenylpropyl)-3-methyl-2,4-dioxo-1,2,3,4-tetrahydro-pyrimidine-5-carboxamide] | <4.52
CC(CNC(=O)c1nccc(=O)[nH]1)(Cc1ccc(F)cc1F)C1CC1 (stereo not shown) [Example 187] | 6.53
Cn1nc(C(=O)NCC2(Cc3cccc(C4CC4)c3)CCC2)[nH]c1=O [Example 77, N-((1-(3-Cyclopropylbenzyl)cyclobutyl)methyl)-1-methyl-5-oxo-4,5-dihydro-1H-1,2,4-triazole-3-carboxamide] | 4.78
O=C(NCC1(Cc2ccccc2)CCC1)c1ccnc(=O)[nH]1 [Example 6, N-((1-benzylcyclobutyl)methyl)-2-oxo-2,3-dihydropyrimidine-4-carboxamide] | 5.13
Cn1nc(C(=O)NCC(CO)Cc2ccccc2)[nH]c1=O (stereo not shown) [Example 70, N-(2-benzyl-3-hydroxypropyl)-1-methyl-5-oxo-4,5-dihydro-1H-1,2,4-triazole-3-carboxamide] | 4.85
